Measured values from PMC6211316, “Synthesis and biological evaluation of 3-arylcoumarin derivatives as potential anti-diabetic agents” (Journal of Enzyme Inhibition and Medicinal Chemistry, 2018).

Test system: not listed separately
Experiment: DPPH free radical scavenging
Details: mean ± SD (n = 3)
Outline: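 Sample solutions at various concentrations mixed 1:1 with DPPH (0.04 mg/mL) and reacted 30 min at room temperature; absorbance read at 517 nm against ethanol blank, corrected for sample absorbance. Scavenging % calculated versus DPPH alone, triplicate measurements, IC50 derived.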
Work on Cc1ccc(-c2cc3c(O)cc(O)cc3oc2=O)cc1 [Compound 25, 5,7-Dihydroxy-3-(4-methylphenyl)-coumarin] yielded an IC50 of 603 ± 7.42 µM.
Compound Cc1ccccc1-c1cc2ccc(O)cc2oc1=O [Compound 11, 7-Hydroxy-3-(2-methylphenyl)-coumarin] has an IC50 of 564.2 ± 5.2 µM.

Test system: not listed separately
Experiment: hydroxyl radical scavenging
Details: mean ± SD (n = 3), read-out: OH IC50 Value
Outline: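 Fenton system of H2O2 (0.03%), FeSO4 (2 mmol/L) and salicylic acid (10 mmol/L) with compound solutions (0.4–2.0 mg/mL), incubated 30 min at 37 °C. Absorbance read at 510 nm. % OH scavenging = [A0−(A1−A2)]/A0×100, with A2 a sample blank using ethanol in place of salicylic acid.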
For Cc1ccc(-c2cc3c(O)cc(O)cc3oc2=O)cc1 [Compound 25, 5,7-Dihydroxy-3-(4-methylphenyl)-coumarin], the IC50 was > 1000 µM.
For Cc1ccccc1-c1cc2ccc(O)cc2oc1=O [Compound 11, 7-Hydroxy-3-(2-methylphenyl)-coumarin], the IC50 was > 1000 µM.

Test system: STZ-diabetic mice
Experiment: Acute hypoglycemic assay in STZ-diabetic mice
Type: in vivo
Details: STZ-diabetics mice, 10 mg/kg of bw per os, 0h
Method: Type II diabetes mellitus was induced in mice by a single intraperitoneal injection of freshly prepared STZ (Sigma Aldrich) dissolved in 0.1M citrate buffer, pH 4.5, in a volume of 110 mg/kg of bw. After 7 days of STZ administration, blood glucose levels of each mouse were determined. Mice with blood glucose levels higher than 11 mM were considered diabetic and were included in the study.
STZ-induced diabetic mice and normal mice were placed in single cages with wire-net floors and deprived of food for 12 h before experimentation but allowed free access to tap water throughout. The compounds (at the doses of 10, 30, and 100 mg/kg of bw) were suspended in 0.05% Tween-80 in saline solution. Glibenclamide (10 mg/kg of bw) was suspended in the same vehicle. The target compounds were freshly prepared immediately before experimentation and administered by the intragastrical route at the doses of 10 ml/kg of bw. Control mice received only the vehicle (0.05% Tween-80 in saline solution) by the same route. Blood glucose levels were measured at 0, 1.5, 3, 5, 7, and 9 h after drugs administration.
Cc1ccc(-c2cc3c(O)cc(O)cc3oc2=O)cc1 [Compound 25, 5,7-Dihydroxy-3-(4-methylphenyl)-coumarin] showed a Blood glucose concentration of 19.7 ± 6.1 mM.
Work on Cc1ccccc1-c1cc2ccc(O)cc2oc1=O [Compound 11, 7-Hydroxy-3-(2-methylphenyl)-coumarin] yielded a Blood glucose concentration of 24.9 ± 4.1 mM.

Same assay, conditions: STZ-diabetics mice, 10 mg/kg of bw per os, 1.5h
In the case of Cc1ccc(-c2cc3c(O)cc(O)cc3oc2=O)cc1 [Compound 25, 5,7-Dihydroxy-3-(4-methylphenyl)-coumarin], the “% Variation of glycemia” value is reported as “(−20.30) %” and the Blood glucose concentration is reported as 15.7 ± 6.6 mM.
In the case of Cc1ccccc1-c1cc2ccc(O)cc2oc1=O [Compound 11, 7-Hydroxy-3-(2-methylphenyl)-coumarin], the “% Variation of glycemia” value is reported as “(−17.27) %” and the Blood glucose concentration is reported as 20.6 ± 5.9 mM.

Same assay, conditions: STZ-diabetics mice, 10 mg/kg of bw per os, 3h
With Cc1ccc(-c2cc3c(O)cc(O)cc3oc2=O)cc1 [Compound 25, 5,7-Dihydroxy-3-(4-methylphenyl)-coumarin] the “% Variation of glycemia” value was “(−24.37) %” and the Blood glucose concentration was 14.9 ± 6.5 mM.
In the case of Cc1ccccc1-c1cc2ccc(O)cc2oc1=O [Compound 11, 7-Hydroxy-3-(2-methylphenyl)-coumarin], the “% Variation of glycemia” value is reported as “(−37.75) %” and the Blood glucose concentration is reported as 15.5 ± 8.5 mM.

Same assay, conditions: STZ-diabetics mice, 10 mg/kg of bw per os, 5h
For Cc1ccc(-c2cc3c(O)cc(O)cc3oc2=O)cc1 [Compound 25, 5,7-Dihydroxy-3-(4-methylphenyl)-coumarin], the “% Variation of glycemia” value was “(−50.76) %” and the Blood glucose concentration was 9.7 ± 3.4 mM.
In the case of Cc1ccccc1-c1cc2ccc(O)cc2oc1=O [Compound 11, 7-Hydroxy-3-(2-methylphenyl)-coumarin], the “% Variation of glycemia” value is reported as “(−48.59) %” and the Blood glucose concentration is reported as 12.8 ± 10.4 mM.

Same assay, conditions: STZ-diabetics mice, 10 mg/kg of bw per os, 7h
For Cc1ccc(-c2cc3c(O)cc(O)cc3oc2=O)cc1 [Compound 25, 5,7-Dihydroxy-3-(4-methylphenyl)-coumarin], the “% Variation of glycemia” value was “(−64.97) %” and the Blood glucose concentration was 6.9 ± 3.9 mM.
With Cc1ccccc1-c1cc2ccc(O)cc2oc1=O [Compound 11, 7-Hydroxy-3-(2-methylphenyl)-coumarin] the “% Variation of glycemia” value was “(−54.22) %” and the Blood glucose concentration was 11.4 ± 8.2 mM.

Same assay, conditions: STZ-diabetics mice, 10 mg/kg of bw per os, 9h
With Cc1ccc(-c2cc3c(O)cc(O)cc3oc2=O)cc1 [Compound 25, 5,7-Dihydroxy-3-(4-methylphenyl)-coumarin] the “% Variation of glycemia” value was “(−56.85) %” and the Blood glucose concentration was 8.5 ± 2.2 mM.
For Cc1ccccc1-c1cc2ccc(O)cc2oc1=O [Compound 11, 7-Hydroxy-3-(2-methylphenyl)-coumarin], the “% Variation of glycemia” value was “(−52.21) %” and the Blood glucose concentration was 11.9 ± 8.5 mM.

Same assay, conditions: STZ-diabetics mice, 30 mg/kg of bw per os, 0h
Work on Cc1ccc(-c2cc3c(O)cc(O)cc3oc2=O)cc1 [Compound 25, 5,7-Dihydroxy-3-(4-methylphenyl)-coumarin] yielded a Blood glucose concentration of 24.8 ± 4.9 mM.
Cc1ccccc1-c1cc2ccc(O)cc2oc1=O [Compound 11, 7-Hydroxy-3-(2-methylphenyl)-coumarin] showed a Blood glucose concentration of 25.3 ± 6.3 mM.

Same assay, conditions: STZ-diabetics mice, 30 mg/kg of bw per os, 1.5h
With Cc1ccc(-c2cc3c(O)cc(O)cc3oc2=O)cc1 [Compound 25, 5,7-Dihydroxy-3-(4-methylphenyl)-coumarin] the “% Variation of glycemia” value was “(−12.50) %” and the Blood glucose concentration was 21.7 ± 3.9 mM.
In the case of Cc1ccccc1-c1cc2ccc(O)cc2oc1=O [Compound 11, 7-Hydroxy-3-(2-methylphenyl)-coumarin], the “% Variation of glycemia” value is reported as “(−20.95) %” and the Blood glucose concentration is reported as 20.0 ± 6.3 mM.

Same assay, conditions: STZ-diabetics mice, 30 mg/kg of bw per os, 3h
With Cc1ccc(-c2cc3c(O)cc(O)cc3oc2=O)cc1 [Compound 25, 5,7-Dihydroxy-3-(4-methylphenyl)-coumarin] the “% Variation of glycemia” value was “(−36.23) %” and the Blood glucose concentration was 15.8 ± 4.5 mM.
In the case of Cc1ccccc1-c1cc2ccc(O)cc2oc1=O [Compound 11, 7-Hydroxy-3-(2-methylphenyl)-coumarin], the “% Variation of glycemia” value is reported as “(−34.78) %” and the Blood glucose concentration is reported as 16.5 ± 6.4 mM.

Same assay, conditions: STZ-diabetics mice, 30 mg/kg of bw per os, 5h
For Cc1ccc(-c2cc3c(O)cc(O)cc3oc2=O)cc1 [Compound 25, 5,7-Dihydroxy-3-(4-methylphenyl)-coumarin], the “% Variation of glycemia” value was “(−64.11) %” and the Blood glucose concentration was 8.9 ± 6.3 mM.
With Cc1ccccc1-c1cc2ccc(O)cc2oc1=O [Compound 11, 7-Hydroxy-3-(2-methylphenyl)-coumarin] the “% Variation of glycemia” value was “(−55.41) %” and the Blood glucose concentration was 11.3 ± 4.0 mM.

Same assay, conditions: STZ-diabetics mice, 30 mg/kg of bw per os, 7h
In the case of Cc1ccc(-c2cc3c(O)cc(O)cc3oc2=O)cc1 [Compound 25, 5,7-Dihydroxy-3-(4-methylphenyl)-coumarin], the “% Variation of glycemia” value is reported as “(−63.71) %” and the Blood glucose concentration is reported as 9.0 ± 4.8 mM.
For Cc1ccccc1-c1cc2ccc(O)cc2oc1=O [Compound 11, 7-Hydroxy-3-(2-methylphenyl)-coumarin], the “% Variation of glycemia” value was “(−62.40) %” and the Blood glucose concentration was 9.5 ± 3.9 mM.

Same assay, conditions: STZ-diabetics mice, 30 mg/kg of bw per os, 9h
In the case of Cc1ccc(-c2cc3c(O)cc(O)cc3oc2=O)cc1 [Compound 25, 5,7-Dihydroxy-3-(4-methylphenyl)-coumarin], the “% Variation of glycemia” value is reported as “(−64.11) %” and the Blood glucose concentration is reported as 8.9 ± 3.8 mM.
With Cc1ccccc1-c1cc2ccc(O)cc2oc1=O [Compound 11, 7-Hydroxy-3-(2-methylphenyl)-coumarin] the “% Variation of glycemia” value was “(−68.14) %” and the Blood glucose concentration was 8.1 ± 4.2 mM.

Same assay, conditions: STZ-diabetics mice, 100 mg/kg of bw per os, 0h
Compound Cc1ccc(-c2cc3c(O)cc(O)cc3oc2=O)cc1 [Compound 25, 5,7-Dihydroxy-3-(4-methylphenyl)-coumarin] has a Blood glucose concentration of 23.0 ± 4.8 mM.
For Cc1ccccc1-c1cc2ccc(O)cc2oc1=O [Compound 11, 7-Hydroxy-3-(2-methylphenyl)-coumarin], the Blood glucose concentration was 23.5 ± 5.4 mM.

Same assay, conditions: STZ-diabetics mice, 100 mg/kg of bw per os, 1.5h
For Cc1ccc(-c2cc3c(O)cc(O)cc3oc2=O)cc1 [Compound 25, 5,7-Dihydroxy-3-(4-methylphenyl)-coumarin], the “% Variation of glycemia” value was “(−20.44) %” and the Blood glucose concentration was 18.3 ± 3.5 mM.
In the case of Cc1ccccc1-c1cc2ccc(O)cc2oc1=O [Compound 11, 7-Hydroxy-3-(2-methylphenyl)-coumarin], the “% Variation of glycemia” value is reported as “(−21.88) %” and the Blood glucose concentration is reported as 18.3 ± 3.9 mM.

Same assay, conditions: STZ-diabetics mice, 100 mg/kg of bw per os, 3h
For Cc1ccc(-c2cc3c(O)cc(O)cc3oc2=O)cc1 [Compound 25, 5,7-Dihydroxy-3-(4-methylphenyl)-coumarin], the “% Variation of glycemia” value was “(−25.36) %” and the Blood glucose concentration was 17.2 ± 2.9 mM.
For Cc1ccccc1-c1cc2ccc(O)cc2oc1=O [Compound 11, 7-Hydroxy-3-(2-methylphenyl)-coumarin], the “% Variation of glycemia” value was “(−34.89) %” and the Blood glucose concentration was 15.3 ± 3.9 mM.

Same assay, conditions: STZ-diabetics mice, 100 mg/kg of bw per os, 5h
With Cc1ccc(-c2cc3c(O)cc(O)cc3oc2=O)cc1 [Compound 25, 5,7-Dihydroxy-3-(4-methylphenyl)-coumarin] the “% Variation of glycemia” value was “(−56.95) %” and the Blood glucose concentration was 9.9 ± 2.7 mM.
With Cc1ccccc1-c1cc2ccc(O)cc2oc1=O [Compound 11, 7-Hydroxy-3-(2-methylphenyl)-coumarin] the “% Variation of glycemia” value was “(−52.76) %” and the Blood glucose concentration was 11.1 ± 4.4 mM.

Same assay, conditions: STZ-diabetics mice, 100 mg/kg of bw per os, 7h
In the case of Cc1ccc(-c2cc3c(O)cc(O)cc3oc2=O)cc1 [Compound 25, 5,7-Dihydroxy-3-(4-methylphenyl)-coumarin], the “% Variation of glycemia” value is reported as “(−64.78) %” and the Blood glucose concentration is reported as 8.1 ± 1.6 mM.
In the case of Cc1ccccc1-c1cc2ccc(O)cc2oc1=O [Compound 11, 7-Hydroxy-3-(2-methylphenyl)-coumarin], the “% Variation of glycemia” value is reported as “(−62.21) %” and the Blood glucose concentration is reported as 8.9 ± 2.8 mM.

Same assay, conditions: STZ-diabetics mice, 100 mg/kg of bw per os, 9h
For Cc1ccc(-c2cc3c(O)cc(O)cc3oc2=O)cc1 [Compound 25, 5,7-Dihydroxy-3-(4-methylphenyl)-coumarin], the “% Variation of glycemia” value was “(−60.43) %” and the Blood glucose concentration was 9.1 ± 2.3 mM.
In the case of Cc1ccccc1-c1cc2ccc(O)cc2oc1=O [Compound 11, 7-Hydroxy-3-(2-methylphenyl)-coumarin], the “% Variation of glycemia” value is reported as “(−65.27) %” and the Blood glucose concentration is reported as 8.2 ± 2.6 mM.

Test system: STZ-induced diabetic mice
Experiment: Daily treatment for 16 days in STZ-induced diabetic mice
Type: in vivo
Details: 30 mg/kg of bw daily per os, 16 days
Method: Thereafter, the target compounds 11, 17, 35, and glibenclamide were administered once (9 a.m.) on a daily basis, for a period of 16 days, to STZ-induced diabetic mice which were divided into five groups (A-E). A six group of normal mice (Group F) was used as a control. Groups E (diabetic control) and F received vehicle (0.05% Tween-80 in saline solution) per os for 16 days. Group A received glibenclamide (10 mg/kg of bw daily). Groups B–D received different treatments: B, compound 11 (30 mg/kg of bw daily); C, compound 17 (30 mg/kg of bw daily); D, compound 35 (30 mg/kg of bw daily). All tested materials were suspended in the same vehicle and administered per os daily for 16 days. The animals were housed under standard laboratory conditions and maintained with free access to water and food during all the experiment. Blood glucose concentration on animals of diabetic (Groups A–E) and control group (Group F) was estimated at days 1, 4, 7, 10, 13, and 16. The bw of the animals were measured concomitantly to the blood glucose analyses. All experiments were carried out using six animals per group.
For Cc1ccccc1-c1cc2ccc(O)cc2oc1=O [Compound 11, 7-Hydroxy-3-(2-methylphenyl)-coumarin], the “bw loss in hyperglycemic mice” value was “prevented bw loss”.

Same assay, conditions: 30 mg/kg of bw oral, once a day, for 16 days
With Cc1ccccc1-c1cc2ccc(O)cc2oc1=O [Compound 11, 7-Hydroxy-3-(2-methylphenyl)-coumarin] the “long-term anti-hyperglycemic effect (blood glucose levels)” value was “less efficient in decreasing blood glucose levels”.
